The values that follow come from patent publication US11142526B2, “Spirocycle compounds and methods of making and using same” (H. Lundbeck A/S, priority 2017, dated 2021).

For assay [1], the target named is MAGL (Homo sapiens (Human), UniProt Q99685). In words: In vitro competitive activity-based protein profiling (gel-based, FP-Rh or HT-01 probe). As to conditions: for IC50: read-out: MAGL Human PC3 (IC50). The assay is classed as biochemical. The procedure:
In Vitro Competitive Activity-Based Protein Profiling.
Proteomes (human prefrontal cortex or cell membrane fractions) (50 μL, 1.0 mg/mL total protein concentration) were preincubated with varying concentrations of inhibitors at 37° C. After 30 min, FP-Rh or HT-01 (1.0 μL, 50 μM in DMSO) was added and the mixture was incubated for another 30 min at room temperature. Reactions were quenched with SDS loading buffer (15 μL—4×) and run on SDS-PAGE.

Assay [2] deals with T1, MAGL (Mus musculus (Mouse), UniProt O35678). Description: Mouse brain proteomes from inhibitor treated mice (oral gavage, brain MAGL activity 4 h after administration). In kind it is in vivo. Particulars: 5 mg/kg oral gavage. Here is the method:
Preparation of Mouse Brain Proteomes from Inhibitor Treated Mice.
Inhibitors were administered to wild-type C57B1/6J by oral gavage in a vehicle of polyethylene glycol.

Assay [3] deals with T1, MAGL. Description: In vitro competitive activity-based protein profiling, mouse brain proteome. In kind it is biochemical. As to conditions: for inhibition at 1 µM: mouse; for IC50: mouse brain.
Where [4] appears, read: human PC3, read-out: MAGL % Inhibition at 1 μM (human PC3).

Structures are written as SMILES. Read-outs that look alike come from different tables or passages of the source.

T1 sequence (O35678 whole entry): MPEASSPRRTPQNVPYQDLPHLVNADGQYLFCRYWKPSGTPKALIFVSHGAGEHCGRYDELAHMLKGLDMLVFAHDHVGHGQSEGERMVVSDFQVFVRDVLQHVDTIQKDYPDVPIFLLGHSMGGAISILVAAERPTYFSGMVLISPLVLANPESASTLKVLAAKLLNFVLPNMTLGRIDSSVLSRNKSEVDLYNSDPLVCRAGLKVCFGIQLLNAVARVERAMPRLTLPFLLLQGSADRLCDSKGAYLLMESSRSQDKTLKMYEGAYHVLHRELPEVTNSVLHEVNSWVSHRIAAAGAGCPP
Chain of MAGL (Homo sapiens (Human), UniProt Q99685) (Q99685 whole entry): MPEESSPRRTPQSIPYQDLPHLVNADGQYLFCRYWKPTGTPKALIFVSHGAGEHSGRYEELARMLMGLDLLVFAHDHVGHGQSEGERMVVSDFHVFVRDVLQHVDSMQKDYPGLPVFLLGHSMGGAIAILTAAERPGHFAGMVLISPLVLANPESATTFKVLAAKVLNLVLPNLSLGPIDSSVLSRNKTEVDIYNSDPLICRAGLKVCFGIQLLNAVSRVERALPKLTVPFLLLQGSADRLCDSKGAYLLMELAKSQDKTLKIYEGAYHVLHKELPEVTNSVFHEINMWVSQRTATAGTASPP

In the case of `CC1(NC(=O)c2cn3c(n2)CN(S(C)(=O)=O)CC3)CCN(C(=O)OC(C(F)(F)F)C(F)(F)F)CC1` [Example 27, 1,1,1,3,3,3-hexafluoropropan-2-yl 4-methyl-4-(7-(methylsulfonyl)-5,6,7,8-tetrahydroimidazo[1,2-a]pyrazine-2-carboxamido)piperidine-1-carboxylate], the inhibition (in general, the change of the read-out against control, counted positive when it falls) at 1 µM in assay [1] (setting [4]) was more than 75%. Further, the IC50 (commonly the concentration at which inhibition is half-maximal) in assay [1] (human PC3) was less than 0.1 µM. The “MAGL % Inhibition at 5 mg/kg (Mouse)” value in assay [2] is “# (% inhibition less or equal to 25%)”.
On to `CC(C)N1CCn2cc(C(=O)NC3(C)CCN(C(=O)OC(C(F)(F)F)C(F)(F)F)CC3)nc2C1` [Example 182, 1,1,1,3,3,3-Hexafluoropropan-2-yl 4-(7-isopropyl-5,6,7,8-tetrahydroimidazo[1,2-a]pyrazine-2-carboxamido)-4-methylpiperidine-1-carboxylate], for which the inhibition at 1 µM in assay [1] (setting [4]) is more than 75%; in assay [1] (human PFC (prefrontal cortex), read-out: MAGL % Inhibition at 1 μM (human PFC)) it was more than 75%. Also, the IC50 in assay [1] (human PC3) was less than 0.1 µM. For the same molecule, the “MAGL % Inhibition at 5 mg/kg (Mouse)” value in assay [2] is “### (% inhibition is greater than or equal to 75%)”.
Take `CC(C)n1cc(CN2CCC3(CCN(C(=O)OC(C(F)(F)F)C(F)(F)F)CC3)C2)c(-c2cccc(Cl)c2)n1` [Example 218, 1,1,1,3,3,3-Hexafluoropropan-2-yl 2-((3-(3-chlorophenyl)-1-isopropyl-1H-pyrazol-4-yl)methyl)-2,8-diazaspiro[4.5]decane-8-carboxylate]: the “MAGL % Inhibition at 5 mg/kg (Mouse)” value in assay [2] is on record as “### (% inhibition is greater than or equal to 75%)”. In assay [3], this molecule showed an inhibition at 1 µM of more than 75% and an IC50 of less than 0.1 µM.
For `CC(C)n1cc(CN2CCCC23CCN(C(=O)OC(C(F)(F)F)C(F)(F)F)CC3)c(-c2cccc(Cl)c2)n1` [Example 219, 1,1,1,3,3,3-Hexafluoropropan-2-yl 1-((3-(3-chlorophenyl)-1-isopropyl-1H-pyrazol-4-yl)methyl)-1,8-diazaspiro[4.5]decane-8-carboxylate], in that order: “### (% inhibition is greater than or equal to 75%)”, more than 75% and less than 0.1 µM.
The matching figures for `CC(C)n1cc(CN2CCCC23CCN(C(=O)OC(C(F)(F)F)C(F)(F)F)CC3)c(-c2ccccc2Cl)n1` [Example 222, 1,1,1,3,3,3-Hexafluoropropan-2-yl 1-((3-(2-chlorophenyl)-1-isopropyl-1H-pyrazol-4-yl)methyl)-1,8-diazaspiro[4.5]decane-8-carboxylate]: “### (% inhibition is greater than or equal to 75%)”, more than 75% and less than 0.1 µM.
On to `O=C(OC(C(F)(F)F)C(F)(F)F)N1CCC2(CCCN2Cc2cc3ccccc3s2)CC1` [Example 223, 1,1,1,3,3,3-Hexafluoropropan-2-yl 1-(benzo[b]thiophen-2-ylmethyl)-1,8-diazaspiro[4.5] decane-8-carboxylate], for which the “MAGL % Inhibition at 5 mg/kg (Mouse)” value in assay [2] is listed as “### (% inhibition is greater than or equal to 75%)”. Also, in assay [3], the inhibition at 1 µM is more than 75% and the IC50 was less than 0.1 µM.
For `O=C(OC(C(F)(F)F)C(F)(F)F)N1CCC2(CCCN2Cc2csc(-c3ccccc3)n2)CC1` [Example 227, 1,1,1,3,3,3-Hexafluoropropan-2-yl 1-((2-phenylthiazol-4-yl)methyl)-1,8-diazaspiro[4.5]decane-8-carboxylate], in that order: “### (% inhibition is greater than or equal to 75%)”, more than 75% and less than 0.1 µM.
